Among the data in BindingDB's records for doi:10.1016/j.bmc.2013.04.067 (Chinese Academy of Sciences, 2013) are EC50 values, retold here.

A short description of the data set: Inhibition of p-gp in human KB/VCR cells assessed as potentiation of 100 nM docetaxel-induced cytotoxicity after 72 hrs by MTT assay. For orientation: Tetrazolium assays rely on reduction of a dye to a coloured formazan, in cell work by metabolically active cells.

Turning to `CC1(C)[C@@H](O)CC[C@]2(C)[C@H]3C[C@@H](O)[C@@H]4[C@@H]([C@@](C)(O)CCCNCCc5ccccc5)CC[C@@]4(C)[C@]3(C)CC[C@@H]12`, the concentration for a half-maximal effect (EC50) was 1310 nM.

In the case of `CC1(C)[C@@H](O)CC[C@]2(C)[C@H]3C[C@@H](O)[C@@H]4[C@@H]([C@@](C)(O)CCCNCc5ccccc5)CC[C@@]4(C)[C@]3(C)CC[C@@H]12`, the EC50 was found to be 1370 nM.

Usually EC50 stands for the midpoint of the concentration-response curve.
